# Measurements from patent US20240252454A1, “COMPOSITION COMPRISING AN INHIBITOR OF MITOCHONDRIAL TRANSCRIPTION” (LEAD DISCOVERY CENTER GMBH, priority 2021, published 2024).
# Assays:
# A2780 = test: CellTiter-GLO (CTG) assay, combinatorial matrix; format: cell-based; conditions: for Measured residual activity (%) based on an untreated control group (=100%): A2780, 72 h, cellular ATP content (CellTiter-GLO)
# Procedure: To determine the in vitro cellular viability, cellular ATP concentrations were measured using a luminescence-based homogenous assay format, as described here. […] Optimal cell density for each cell line was determined to guarantee linearity. For viability assays with compounds, cells were then seeded at a density of 200 to 1000 per well in 25 μl in 384-well plates (Greiner Bio-One, Frickenhausen, Germany). After overnight incubation at 37° C./5% CO2, 25 nl or 75 nl compounds were added to each sample well by using BIOMEK FXP Laboratory Automation Workstation (Beckman Coulter, USA). Wells with cells and 0.1% or 0.3% DMSO in culture medium were used as positive controls, wells with cells and 10 μM staurosporine (Selleck Chemicals, Huston, USA) in culture medium were used as negative controls. Upon incubation with compounds for 72 h at 37° C./5% CO2 25 μl Cell Titer Glo reagent (Promega, Madison, USA, European Pat. No. 1131441, U.S. Pat. Nos. 7,083,911, 7,452,663 and 7,732,128) 1:2 diluted with cell culture medium) was added to each well to determine cell viability. 384well-plates were placed for 2 min on an orbital microplate shaker and incubated for further 10 min at room temperature resulting in a stabilization of light signal. Luminescence was measured by Envision Plate Reader (Perkin Elmer, USA).
# All in vitro cell culture experiments were carried out under near physiological glucose concentrations (5 mM) in at least two independent replicates.
# [1] = test system: A2780 ovarian carcinoma xenograft; test: in vivo xenograft study with IMT and MEKi in A2780
# Procedure: Time course of tumour growth (top) and body weight change (bottom). Transplant with A2780 on day 0, stratification on day six into six groups (n=8). Treatment with vehicle formulation, twice daily 25 mg/kg or 12.5 mg/kg Selumetinib, once daily 100 mg/kg (3S)-1-[(2R)-2-[4-(2-chloro-4-fluoro-phenyl)-2-oxo-chromen-7-yl]oxypropanoyl]piperidine-3-carboxylic acid, or the combination of IMT with 12.5 mg/kg MEKi or 25 mg/kg MEKi as indicated. Error bars indicate the standard deviation of the respective group. * indicates significant differences from the control group (nonparametric Whitnes-U test, p<0.05).
# Female NMRI: nu/nu mice were injected subcutaneously with the ovarian carcinoma cell line and, after reaching a palpable tumour volume of 0.2 cm3, were randomized and divided into groups of eight animals each. In addition to a control group, which was administered only with the vehicle formulation, additional groups were given 100 mg/kg (3S)-1-[(2R)-2-[4-(2-chloro-4-fluoro-phenyl)-2-oxo-chromen-7-yl]oxypropanoyl]piperidine-3-carboxylic acid, 12.5 mg/kg AZD6244, 25 mg/kg AZD6244 or the combination of 100 mg/kg (3S)-1-[(2R)-2-[4-(2-chloro-4-fluoro-phenyl)-2-oxo-chromen-7-yl]oxypropanoyl]piperidine-3-carboxylic acid and 12.5 or 25 mg/kg AZD6244 was administered. The substance was administered orally over 21 days, twice daily in 25% PEG400, 57% HPbCD. […]
# HEC59 = test: CellTiter-GLO (CTG) assay, combinatorial matrix; format: cell-based; conditions: 30 μM to 15 nM IMT + 30 μM to 40 nM BAY-876
# [2] = PK and toxicological studies, plasma and liver concentrations; format: in vivo; conditions: oral combination of the IMT and Venetoclax in 0.5% methyl cellulose in water, NBSGW mice, 4 hours, plasma and liver (FIG. 4)
# Procedure: Combinations s of 2-[(3R)-1-[(2R)-2-[4-(2-chloro-4-fluoro-phenyl)-2-oxo-chromen-7-yl]oxypropanoyl]-3-piperidyl]acetic acid and Venetoclax were administered orally in a formulation of 0.5% methyl cellulose in water, before the respective substance concentrations (y-axis) of Venetoclax (left) or 2-[(3R)-1-[(2R)-2-[4-(2-chloro-4-fluoro-phenyl)-2-oxo-chromen-7-yl]oxypropanoyl]-3-piperidyl]acetic acid (right) after 4 hours and extraction from blood plasma or liver tissue were analysed by LC-MS. Error bars indicate the standard deviation around the mean of the multiple measurements.
# For this, a vehicle formulation suitable for the oral administration of the combination of Venetoclax and 2-[(3R)-1-[(2R)-2-[4-(2-chloro-4-fluoro-phenyl)-2-oxo-chromen-7-yl]oxypropanoyl]-3-piperidyl]acetic acid was prepared to examine its pharmacokinetic suitability. Since the formulations based on ethanol, PEG-400 and Phosal that have been published for Venetoclax have not proven to be suitable for generating an administrable solution or suspension of IMT and Venetoclax, a simplified formulation of 0.5% methyl cellulose in water was prepared, which was tested initially in PK and toxicological studies in NBSGW mice (FIG. 4). […] On the other hand, doses that could be safely used were established in this mouse model, with which the subsequent studies could be carried out.
compound,measurement,setting,value
C[C@@H](Oc1ccc2c(-c3ccc(F)cc3Cl)cc(=O)oc2c1)C(=O)N1CCC[C@H](C(=O)O)C1 [(3S)-1-[(2R)-2-[4-(2-chloro-4-fluoro-phenyl)-2-oxo-chromen-7-yl]oxypropanoyl]piperidine-3-carboxylic acid],Measured residual activity (%) based on an untreated control group (=100%),"A2780; Teriflunomide 0 = IMT alone at the concentration (μM) in c1 of the row, IMT 0.12 µM",32%
same,Measured residual activity (%) based on an untreated control group (=100%),"A2780; Teriflunomide 0 = IMT alone at the concentration (μM) in c1 of the row, IMT 15 µM",28%
same,Measured residual activity (%) based on an untreated control group (=100%),"A2780; Teriflunomide 0.04 (μM) + IMT (μM) (30-0), IMT 0.12 µM",31%
same,Measured residual activity (%) based on an untreated control group (=100%),"A2780; Teriflunomide 0.04 (μM) + IMT (μM) (30-0), IMT 0.47 µM",28%
same,Measured residual activity (%) based on an untreated control group (=100%),"A2780; Teriflunomide 0.04 (μM) + IMT (μM) (30-0), IMT 7.5 µM",27%
same,Measured residual activity (%) based on an untreated control group (=100%),"A2780; Teriflunomide 0.1 (μM) + IMT at the concentration (μM) in c1 of the row (30-0), IMT 0.23 µM",29%
same,Measured residual activity (%) based on an untreated control group (=100%),"A2780; Teriflunomide 0.1 (μM) + IMT at the concentration (μM) in c1 of the row (30-0), IMT 7.5 µM",22%
same,Measured residual activity (%) based on an untreated control group (=100%),"A2780; Teriflunomide 0.4 (μM) + IMT at the concentration (μM) in c1 of the row (30-0), IMT 0.06 µM",32%
same,Measured residual activity (%) based on an untreated control group (=100%),"A2780; Teriflunomide 0.4 (μM) + IMT at the concentration (μM) in c1 of the row (30-0), IMT 7.5 µM",22%
same,Measured residual activity (%) based on an untreated control group (=100%),"A2780; Teriflunomide 0.4 (μM) + IMT at the concentration (μM) in c1 of the row (30-0), IMT 15 µM",25%
same,Measured residual activity (%) based on an untreated control group (=100%),"A2780; Teriflunomide 1.1 (μM) + IMT at the concentration (μM) in c1 of the row (30-0), IMT 0.06 µM",30%
same,Measured residual activity (%) based on an untreated control group (=100%),"A2780; Teriflunomide 1.1 (μM) + IMT at the concentration (μM) in c1 of the row (30-0), IMT 0.94 µM",23%
same,Measured residual activity (%) based on an untreated control group (=100%),"A2780; Teriflunomide 3.3 (μM) + IMT at the concentration (μM) in c1 of the row (30-0), IMT 0.06 µM",24%
same,Measured residual activity (%) based on an untreated control group (=100%),"A2780; Teriflunomide 3.3 (μM) + IMT at the concentration (μM) in c1 of the row (30-0), IMT 0.47 µM",23%
same,Measured residual activity (%) based on an untreated control group (=100%),"A2780; Teriflunomide 3.3 (μM) + IMT at the concentration (μM) in c1 of the row (30-0), IMT 30 µM",22%
same,Measured residual activity (%) based on an untreated control group (=100%),"A2780; Teriflunomide 10 (μM) + IMT at the concentration (μM) in c1 of the row (30-0), IMT 0.12 µM",23%
same,Measured residual activity (%) based on an untreated control group (=100%),"A2780; Teriflunomide 10 (μM) + IMT at the concentration (μM) in c1 of the row (30-0), IMT 0.94 µM",19%
same,Measured residual activity (%) based on an untreated control group (=100%),"A2780; Teriflunomide 30 (μM) + IMT at the concentration (μM) in c1 of the row (30-0), IMT 0.03 µM",19%
same,Measured residual activity (%) based on an untreated control group (=100%),"A2780; Teriflunomide 30 (μM) + IMT at the concentration (μM) in c1 of the row (30-0), IMT 30 µM",13%
same,combination of IMT and GLUTi compared to treatment with only the GLUTi BAY-876 alone,"A2780; A2780, CTG matrix, 30 μM to 15 nM IMT + 30 μM to 40 nM BAY-876",advantage of the combination
same,final tumour volume after completion of the study,"[1]; 100 mg/kg IMT + 12.5 or 25 mg/kg AZD6244, oral, 21 days, compared to the same amounts of MEK inhibitor alone (FIG. 2)",advantage of the combination treatment
same,"tolerability (changes in body weight, acute overt effects)",[1]; combination administration of IMT and AZD6244 over the course of the study,well tolerated
same,combination of IMT and GLUTi compared to treatment with only the GLUTi BAY-876 alone,HEC59,advantage of the combination
CC1(C)CCC(CN2CCN(c3ccc(C(=O)NS(=O)(=O)c4ccc(NCC5CCOCC5)c([N+](=O)[O-])c4)c(Oc4cnc5[nH]ccc5c4)c3)CC2)=C(c2ccc(Cl)cc2)C1 [Venetoclax],"PK parameters, in particular the plasma and tissue concentrations",[2],do not significantly influence one another
